According to US9775844B2, “Heterocyclic compounds and uses thereof” (Infinity Pharmaceuticals, Inc., priority 2014, dated 2017):
Where two headings read alike, the source gives them in different places.

Key:
Farage cell line = assay: Combination isobologram in Farage cell line; type: cell-based; conditions: combination of Compound AA and Compound BB
bone marrow macrophages = assay: RANKL driven differentiation of osteoclasts from bone marrow macrophages; type: cell-based
LLC tumor = LLC tumor brei model; type: in vivo
phospho-AKT in monocytes = assay: Ex vivo whole blood stimulation of phospho-AKT in monocytes of LLC-bearing mice; conditions: LLC-bearing mice treated with compound
[1] = test system: LPS induced neutrophil influx in bronchoalveolar lavage fluid; assay: LPS-induced neutrophilia, oral administration; type: in vivo; conditions: rat, p.o., 4 hours post-LPS challenge, dose dependent
Protocol: (§1) This study also includes assessment of the exposure to the compounds in plasma and lung tissues.
(§2) Ref C is budesonide p.o. The compound was administered p.o. and about 1 hour later, LPS was administered intra-tracheally and plasma was collected. After about 5 hours, plasma and bronchoalveolar lavage samples were collected.

[2] = Oral PK in the rat LPS studies (free plasma concentration); type: in vivo; conditions: plasma, read-out: Free Plasma Conc
Protocol: as §1, §2

[3] = test system: RANKL driven differentiation of osteoclasts from bone marrow macrophages; assay: Osteoclast differentiation assay (TRAP staining); type: cell-based, mouse; conditions: FIG. 17
Protocol: Bone Marrow Derived Macrophages as Osteoclast Progenitors: Long bones from young C57B6 mice were harvested and bone marrow was extruded by gentle lavage of the bone marrow cavities with a 28 gage needle. The cells were screened, and red blood cells were removed using red blood cell lysis buffer (Sigma). Bone marrow cells were differentiated to macrophages using 20 ng/ml mouse MCSF (RnD systems) for 3 days (RPMI and 20% FCS). The cell were washed with PBS, and lifted with Accutase for 10 minutes.
Osteoclast Differentiation Assay: The bone marrow macrophage cells were plated at 150,000 cells per well in a 96 well plate in a MEM 10% FCS. […] Then 25 ng/ml mouse MCSF with or without mouse RANKL (100 ng/ml, RnD systems) was added for 6 days. Media changes (including drugs) were done at day 3 and day 5. The cells were then fixed and stained with the tartrate resistant acid phosphatase (TRAP) assay kit from Sigma according to the manufactures instructions. TRAP positive cells (osteoclasts and cells undergoing an osteoclastic differentiation) in a transect of the triplicate wells (at 20× […]) were manually counted by going through the widest part of each well.

[4] = test system: M1 macrophage differentiation; assay: M1 macrophage differentiation; type: cell-based
Protocol: A similar experiment was performed on M1 differentiation.

LLC tumor brei = assay: Lewis Lung Carcinoma (LLC tumor brei) model; type: in vivo, mouse; conditions: single agent, FIG. 25A/25B
Protocol: Compound BB was tested in the Lewis Lung Carcinoma model, which is known in the art and briefly described hereinabove.
LLC tumor brei model was prepared and injected subcutaneously into a mouse in the hind flank region. The tumor brei was prepared as follows. LL2-Luc tumor cells were grown in culture in DMEM+10% FBS. Cells were implanted @ 1×10^6 cells/100 uL SC in the flank of C57 Albino mice (male) When tumors reached 1000 mm3, tumors were harvested. Only the white, living tissue was harvested. Any material containing visable blood or necrotic area was isolated away from the tumor tissue. Tumor tissue was placed in a Dounce tissue homoginized with 5 mLs of warm DMEM (no FBS). About 1-2 grams of tumor tissue was collected, homogenized, pooled into 50 mL falcon tube, and cells were counted. Cells were spinned @ 12,000 RPM, and FBS was pooled off. Cells were resuspended to equal 1×10^7 cells/mL with sterile PBS. 100 uL of cells/mouse SC at the hind flank region were implanted. This process was repeated one more time before conducting brei tumor efficacy study.

[5] = Pharmacokinetics in dog, oral; type: in vivo; conditions: 5 mg/kg oral
Text: Compound BB's oral exposure is high in rat, dog and monkey. Good oral bioavailability and low clearance in rodent and non-rodent animal species results in high oral exposure.

[6] = Metabolic stability (microsome stability assay); type: in vitro ADME
Protocol: The stability of one or more subject compounds is determined according to standard procedures known in the art. For example, stability of one or more subject compounds is established by an in vitro assay. For example, an in vitro microsome stability assay is established that measures stability of one or more subject compounds when reacting with mouse, rat or human microsomes from liver. The microsome reaction with compounds is performed in 1.5 mL Eppendorf tube. Each tube contains 0.1 μL of 10.0 mg/mL NADPH; 75 μL of 20.0 mg/mL mouse, rat or human liver microsome; […] of 0.2 M phosphate buffer, and 425 μL of ddH2O. Negative control (without NADPH) tube contains 75 μL of 20.0 mg/mL mouse, rat or human liver microsome; […] of 0.2 M phosphate buffer, and 525 μL of ddH2O. The reaction is started by adding 1.0 μL of 10.0 mM tested compound. The reaction tubes are incubated at 37° C. 100 μL sample is collected into new Eppendorf tube containing 300 μL cold methanol at 0, 5, 10, 15, 30 and 60 minutes of reaction. Samples are centrifuged at 15,000 rpm to remove protein. Supernatant of centrifuged sample is transferred to new tube. Concentration of stable compound after reaction with microsome in the supernatant is measured by Liquid Chromatography/Mass Spectrometry (LC-MS).
These properties indicate the compound's suitability for in vivo administration.

With `C[C@H](NC(=O)c1c(N)nn2cccnc12)c1cc2cccc(C#Cc3cnn(C)c3)c2c(=O)n1-c1ccccc1` [Compound BB] the “combination effect (isobologram)” value (Farage cell line) was “synergistic effect”, the “RANKL driven differentiation of osteoclasts” value (bone marrow macrophages) was “prevents” and the “CD206+M2 polarized suppressive macrophages” value (LLC tumor) was “reduces”. The TAMs (LLC tumor) was “decreased”, the “ex vivo whole blood stimulation of phospho-AKT in monocytes” value (phospho-AKT in monocytes) was “inhibits” and the “neutrophil in bronchoalveolar lavage fluid (BALF)” value [1] was “reduced neutrophil”. For the same compound, the concentration at 1.5 h ([2]; oral, p.o. 0.5 mg/kg, 1.5h (time of LPS challenge)) was 2.1 nM, the concentration at […] ([2]; oral, p.o. 0.5 mg/kg, 5.5h (approximately 4 hours post LPS challenge)) was 2.6 nM and the concentration at 1.5 h ([2]; po, p.o. 1.5 mg/kg, 1.5h) was 5.2 nM. For the same compound, the concentration at […] ([2]; po, p.o. 1.5 mg/kg, 5.5h) was 5.4 nM, the concentration at 1.5 h ([2]; po, p.o. 5 mg/kg, 1.5h) was 22.6 nM and the concentration at […] ([2]; po, p.o. 5 mg/kg, 5.5h) was 24.7 nM. The “RANKL driven differentiation of osteoclasts (TRAP positive cells)” value [3] was “prevents RANKL driven differentiation of osteoclasts”, the M1 macrophage differentiation [4] was “did not have an observable effect” and the “tumor growth, Lewis Lung Carcinoma model” value (LLC tumor brei) was “single agent activity”. For the same compound, the “oral exposure (plasma concentrations within 24 hours)” value [5] was “high”, the metabolic stability [6] was “high metabolic stability” and the half-life at 20 µM ([6]; liver microsomes, microsomes, all species (incl rat)) was greater than 2 h.
